In assay [1] the test system is HIF2α-dependent transcription in 786-O-HRE-Luc cells. The experiment in a line: In vitro cellular hypoxia response element (HRE) reporter gene assay (RGA) for HIF2α. The note with it: 24 hours incubation. The class given is cell-based, human. The protocol: (§1) Stock solutions of compounds were prepared at a concentration of 10 mM in DMSO and stored at 4° C. Where necessary to afford a full dose-response curve, the stock solutions were pre-diluted in DMSO to 1,000-fold the desired reduced start concentration. On the day after cell seeding, eleven 2-fold serial dilutions of each compound were dispensed directly into the cell assay plates using either HP 300D non-contact Digital Dispenser (TECAN) or a ATS100 acoustic dispenser (EDC Biosystems).
The ability of compounds to inhibit HIF2α- and HIF1α-dependent transcription was assessed in 786-O-HRE-Luc and RCC4-HRE-Luc cells, respectively. The putative unselective inhibition of firefly luciferase activity or expression was assessed in 786-O-UB6-Luc and RCC4-UB6-Luc cells, respectively. The reporter lines were generated as follows: 786-O (RRID: CVCL_1051) and RCC4 (RRID: CVCL_0498) clear cell renal carcinoma cell lines were obtained from ATCC and Celeste Simon (University of Pennsylvania), respectively. Either cell line was transduced with a lentiviral vector in which the expression of a PEST-destabilized version of firefly-luciferase is under the control of either a minimal promoter coupled to four copies of a minimal hypoxia response element (HRE) sequence (pLenti 4×HRE Luc PEST), or a promoter from the house-keeping UBC gene (pLenti UB6 Luc PEST). In short, for the construction of the pLenti 4×HRE Luc PEST vector, 4×HRE DNA oligonucleotides were synthesized, annealed and cloned into pGL4.27 plasmid vector (Promega) predigested with NheI and HindIII restriction enzymes. The sequence of the two DNA oligonucleotides was as follows: NheI 4×HRE HindIII FWD: […] (SEQ ID NO: 8); NheI 4×HRE HindIII REV […] (SEQ ID NO: 9). The 4×HRE Luc PEST fragment was then PCRed from this plasmid with restriction enzyme sites NheI and XhoI at the two ends, and inserted into pLenti6/BLOCK iT DEST (Thermo Fisher Scientific) predigested with NheI and XhoI restriction enzymes. For the construction of the pLenti UB6 Luc PEST vector, the Luc PEST sequence was PCRed from pGL4.27 (Promega) using EcoRV and XhoI restriction enzymes at the two ends, and inserted into pLenti6/UBC/V5/DEST (Thermo Fisher Scientific) predigested with the same enzymes. 786-O and RCC4 cells (300,000 per well of a 6 well plate) were infected in the presence of 10 μg/ml polybrene with lentivirus harvested two days after transfection of HEK293-FT (ThermoFisher Scientific #R70007) cells (80% confluent in a 100 cm^2 dish) with a mix of 1.5 ml OptiMEM (ThermoFisher Scientific #31985062) containing 3 μg of the desired plasmids and 9 μl of ViralPower Packaging mix (ThermoFisher Scientific #K497500), and 1.5 ml OptiMEM containing 36 μl Lipofectamine 2000 (ThermoFisher Scientific #11668019). Successfully infected cells were selected using blasticidin (Gibco #A11139-03) at a final concentration of 5 μg/ml. The resulting stable cell lines were named 786-O pLenti 4×HRE Luc PEST (short: 786-O-HRE-Luc), 786-O pLenti UB6 Luc PEST (short: 786-O-UB6-Luc), RCC4 pLenti 4×HRE Luc PEST (short: RCC4-HRE-Luc) and RCC4 pLenti UB6 Luc PEST (short: RCC4-UB6-Luc). All 4 cell lines were maintained in growth medium composed of DMEM (GIBCO #11995-065), 2 mM L-Glutamine (BioConcept #5-10K50-H), 10% fetal calf serum (Gibco #A31608-01), 1× Penicillin/Streptomycin (BioConcept #4-01F00-H), 1 mM Sodium pyruvate (BioConcept #5-60F00-H) and 5 μg/ml blasticidin (Gibco #A11139-03) at 37° C. in a humidified 5% CO2 incubator.
For the reporter gene assay, the individual cell lines were seeded at 2,500 cells/20 μL/well into white-wall, clear-bottom 384-well plates (Greiner #781098) and incubated over night at 37° C. prior to addition of serial compound dilutions as described above. […]

Assay [2] relates to HIF2α-regulated expression of the endogenous target gene hEGLN3 in 786-O cells. Put plainly: Cellular iScript assay for HIF2α (quantitative RT-PCR of hEGLN3). The format is cell-based, human. How it is done: as §1
Compound-mediated modulation of the HIF2α-regulated expression of the endogenous target gene hEGLN3 (OMIM: 606426), as well as beta-actin (OMIM: 102630) as a house-keeping control, was assess in 786-O cells (RRID CVCL_1051) using a quantitative RT-PCR approach. In short, 786-O cells were maintained in growth medium composed of DMEM (GIBCO #11995-065), 2 mM L-Glutamine (BioConcept #5-10K50-H), 1× Penicillin/Streptomycin (BioConcept #4-01F00-H), 10% fetal calf serum (Gibco #A31608-01), 1 mM Sodium pyruvate (BioConcept #5-60F00-H). Cells were seeded at 1,000 cells/20 μL/well into white-wall, clear-bottom 384-well plates (Greiner #781098) and incubated over night at 37° C. prior to addition of serial compound dilutions as described above. Following incubation for 48 hours at 37° C., medium supernatant was discarded and the plate blotted dry by inverting on a tissue. The same procedure was repeated following one wash with 20 μL phosphate-buffered saline. Following addition of 25 μL/well iScript sample preparation reagent (BioRad #170-8899) using a 16-channel Matrix pipette, the plate was incubated for 2 min at room temperature. 20 μL lysate supernatant was then removed and transferred to a new 384 well plate (Costar #3656) and diluted 1:3 by adding 5 μL of the lysate to 10 μL H2O using a Bravo liquid handler (Agilent). 2 μL of the diluted lysate was added to the 8 μL of a mastermix containing 5 μL iTaq Universal Probes One-step kit (BioRad #172-5141), 0.25 μL iScript reverse transcription supermix (BioRad #1708840), 0.25 μL 40×HEX-ZEN-labeled TaqMan probe for beta-actin (IDT #Hs.PT.39a.22214847: Probe 5′ HEX-TCA TCC ATG/ZEN/GTG AGC TGG CGG-3′ (SEQ ID NO: 2) Iowa Black FQ, Primer 1: ACA GAG CCT CGC CTT TG (SEQ ID NO: 3); Primer 2: CCT TGC ACA TGC CGG (SEQ ID NO: 4) AG), 0.25 μL, 40×FAM-ZEN-labeled TaqMan probe for hEGLN3 (IDT #Hs.PT.58.189348: Probe 5′ 6-FAM-TTT GGC TTC/ZEN/TGC CCT TTC TTC AGC-3′ (SEQ ID NO: 5) Iowa Black FQ, Primer 1: CACGGTCAGTCTTCAGTGAG (SEQ ID NO: 6); Primer 2: CGCAACCAGATATGCTATGACT (SEQ ID NO: 7)), 2.25 μL RNase-free water, prelaid in a 384 well plate (ABI #4309849) using a 16-channel Matrix pipette. The plate was sealed with a PCR-compatible optical film (MicroAmp, ABI #4360954) and centrifuged (1500 rpm, 5 min, +4° C.) to collect all reagents in the bottom of the well and to remove bubbles. The plate content was amplified on a 7900HT thermal cycler (ABI) using the following conditions: Step 1: 50° C. for 10 min, Step 2: 95° C. for 3 min, Step 3 (40×): 95° C. for 15 s, 60° C. for 1 min. ROX (reaction volume 10 μL) was used as a passive reference. Data were collected with manual adjustment of the Ct threshold (beta-actin: 0.046, hEGLN3: 0.06) and were analyzed using the 2^(−ΔΔCt) method. Thus, for each sample, the following values were calculated: 2^(−Ct)a for beta-actin, 2^(−Ct)e for EGLN3, and 2^(−ΔCt) calculated as (2^(−Ct)e/2^(−Ct)a). The mean 2^(−ΔCt) as well as the corresponding standard deviation was calculated for each sample. Taking the DMSO-treated sample as a reference, the 2^(−ΔΔCt) for each sample was calculated as follows: 2^(−ΔΔCt)=2^(−ΔCt)sample/(2^(−ΔCt)DMSO). After calculating differential expression as 2^(−ΔΔCt) for each sample, it was then expressed as a percentage (×100) to obtain a dose-response curve in % of DMSO control and IC50s were calculated using a four-parametric fit model.

The target of assay [3] is HIF2α PAS-B domain (236-350, biotinylated on the N-terminus) (Homo sapiens (Human), UniProt Q99814).
HIF2α PAS-B domain (236-350, biotinylated on the N-terminus), sequence (Q99814 236-350): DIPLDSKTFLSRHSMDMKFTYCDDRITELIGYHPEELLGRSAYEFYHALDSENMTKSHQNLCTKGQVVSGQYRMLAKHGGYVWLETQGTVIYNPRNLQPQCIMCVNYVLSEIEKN
Protocol: The assay buffer contained 50 mM Tris-HCl pH7 (Sigma), 20 mM NaCl (Fluka), 0.02% BSA (Sigma), 0.005% Triton X-100 (Pierce) and 1 mM DTT (Fluka). After a 30 min incubation period, 5 μL Streptavidin PVT SPA Beads (Perkin Elmer) at 1.2 mg/mL, diluted in the buffer, were added.
Where [4] appears, read: Homo sapiens, 786-0, 48 hours incubation.

On to `Fc1c(Br)ccc2c1C(F)(F)CC[C@@]21CN2C=C(C(F)(F)F)C=C(OC(F)F)C2=N1` [Example 14, (S)-6′-bromo-8-(difluoromethoxy)-4′,4′,5′-trifluoro-6-(trifluoromethyl)-3′,4′-dihydro-2′H,3H-spiro[imidazo[1,2-a]pyridine-2,1′-naphthalene]], for which the IC50 (usually the point on the concentration scale where inhibition reaches its midpoint) is 146 nM in assay [1] (Homo sapiens), 57 nM in assay [2] (setting [4]) and 9 nM in assay [3].

Regarding `N#Cc1ccc2c(c1F)C(F)(F)CC[C@@]21CN2C=C(C(F)(F)F)C=C(OC(F)F)C2=N1` [Example 15, (S)-8-(difluoromethoxy)-4′,4′,5′-trifluoro-6-(trifluoromethyl)-3′,4′-dihydro-2′H,3H-spiro[imidazo[1,2-a]pyridine-2,1′-naphthalene]-6′-carbonitrile], the figures for the IC50 in assay [1] (Homo sapiens), in assay [2] (setting [4]) and in assay [3] were 392 nM, 128 nM and 16 nM, respectively.

For the molecule `Fc1c(Br)ccc2c1CCC[C@@]21CN2C=C(C(F)(F)F)C=C(Cl)C2=N1` [Example 16, (S)-6′-bromo-8-chloro-5′-fluoro-6-(trifluoromethyl)-3′,4′-dihydro-2′H,3H-spiro[imidazo[1,2-a]pyridine-2,1′-naphthalene]], the values for the IC50 in assay [1] (Homo sapiens), in assay [2] (setting [4]) and in assay [3] were 372 nM, 43 nM and ≤ 6 nM, respectively.

Consider `O=C1c2c(ccc(Br)c2F)[C@]2(CN3C=C(C(F)(F)F)C=C(OC(F)F)C3=N2)CC1(F)F` [Example 17, (S)-6′-bromo-8-(difluoromethoxy)-3′,3′,5′-trifluoro-6-(trifluoromethyl)-2′H,3H-spiro[imidazo[1,2-a]pyridine-2,1′-naphthalen]-4′(3′H)-one], for which the half-maximal inhibitory concentration (IC50) was found to be 466 nM in assay [1] (Homo sapiens), 199 nM in assay [2] (setting [4]) and 62 nM in assay [3].

Consider `O=C1c2c(F)cccc2[C@@]2(C[C@@H]1F)CN1C=C(C(F)(F)F)C=C(OC(F)F)C1=N2` [Example 21], for which the IC50 was found to be 1100 nM in assay [1], 121 nM in assay [2] (48 hours incubation) and 36 nM in assay [3].

On to `N#Cc1ccc2c(c1F)CCC[C@@]21CN2C=C(C(F)(F)F)C=C(OC(F)F)C2=N1` [Example 22, (S)-8-(difluoromethoxy)-5′-fluoro-6-(trifluoromethyl)-3′,4′-dihydro-2′H,3H-spiro[imidazo[1,2-a]pyridine-2,1′-naphthalene]-6′-carbonitrile], for which the IC50 in assay [1] (Homo sapiens) worked out at 185 nM; in assay [2] (setting [4]), 37 nM; in assay [3], 8 nM.

For `Fc1cccc2c1C(F)(F)CC[C@@]21CN2C=C(C(F)(F)F)C=C(OC(F)F)C2=N1` [Example 23, (S)-8-(difluoromethoxy)-4′,4′,5′-trifluoro-6-(trifluoromethyl)-3′,4′-dihydro-2′H,3H-spiro[imidazo[1,2-a]pyridine-2,1′-naphthalene]], the IC50 in assay [1] (Homo sapiens) was determined as 92 nM; in assay [2] (setting [4]) it was 30 nM; in assay [3], 4 nM.

As to `N#Cc1ccc2c(c1F)[C@@H](F)CC[C@@]21CN2C=C(C(F)(F)F)C=C(OC(F)F)C2=N1` [Example 25, (1′S,4'S)-8-(difluoromethoxy)-4′,5′-difluoro-6-(trifluoromethyl)-3′,4′-dihydro-2′H,3H-spiro[imidazo[1,2-a]pyridine-2,1′-naphthalene]-6′-carbonitrile], the IC50 came out at 202 nM in assay [1] (Homo sapiens), 83 nM in assay [2] (setting [4]) and 19 nM in assay [3].

With `N#CC1=CN2C[C@@]3(CCCc4c(F)cccc43)N=C2C(OC(F)F)=C1` [Example 26, (S)-8-(difluoromethoxy)-5′-fluoro-3′,4′-dihydro-2′H,3H-spiro[imidazo[1,2-a]pyridine-2,1′-naphthalene]-6-carbonitrile], the values for the IC50 in assay [1] (Homo sapiens), in assay [2] (setting [4]) and in assay [3] were 144 nM, 34 nM and ≤ 6 nM, respectively.

Consider `[2H]C1([2H])CC[C@@]2(CN3C=C(C#N)C=C(OC(F)F)C3=N2)c2cccc(F)c21` [Example 27, d2-(S)-8-(difluoromethoxy)-5′-fluoro-3′,4′-dihydro-2′H,3H-spiro[imidazo[1,2-a]pyridine-2,1′-naphthalene]-6-carbonitrile], for which the IC50 was determined as 188 nM in assay [1] (Homo sapiens), 102 nM in assay [2] (setting [4]) and 12 nM in assay [3].

The values are drawn from patent US12226405B2, “Compounds and compositions for inhibiting the activity of HIF2-alpha and their methods of use” (Novartis AG, priority 2020, dated 2025).
